Data reported in ChEMBL document CHEMBL2218064, “Structure-activity relationship data for chemical series of antagonists of the P2X7 receptor (Supplementary Bioactivity Data for publication CHEMBL1157114)”.

biological target: T1, P2X purinoceptor 7 (Homo sapiens, UniProt Q99572); assay: SUPPLEMENTARY: Inhibition of human P2X7 receptor assessed as inhibition of ethidium bromide accumulation. Same assay as CHEMBL1103860
T1 sequence (Q99572 whole entry): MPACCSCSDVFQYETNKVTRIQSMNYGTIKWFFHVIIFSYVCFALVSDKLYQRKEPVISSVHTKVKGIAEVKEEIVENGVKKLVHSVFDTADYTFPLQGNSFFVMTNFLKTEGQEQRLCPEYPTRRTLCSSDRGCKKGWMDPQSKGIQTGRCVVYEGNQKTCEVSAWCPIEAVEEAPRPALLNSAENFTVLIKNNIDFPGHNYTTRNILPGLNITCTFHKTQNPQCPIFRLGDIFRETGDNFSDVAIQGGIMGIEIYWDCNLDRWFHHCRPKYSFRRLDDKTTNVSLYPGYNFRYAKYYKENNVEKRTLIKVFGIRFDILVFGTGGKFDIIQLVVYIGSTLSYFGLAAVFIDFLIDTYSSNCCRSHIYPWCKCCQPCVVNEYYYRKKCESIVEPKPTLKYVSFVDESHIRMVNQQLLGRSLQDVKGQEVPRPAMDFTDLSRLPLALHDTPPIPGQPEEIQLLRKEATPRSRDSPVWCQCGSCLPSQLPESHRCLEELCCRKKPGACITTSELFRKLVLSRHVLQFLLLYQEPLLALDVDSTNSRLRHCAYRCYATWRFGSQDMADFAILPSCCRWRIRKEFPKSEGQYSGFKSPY

Compound	IC50 [nM]
CCN1C(=O)CC[C@@H]1C(=O)NCc1c(C)cccc1Cl	501
O=C1C(=O)N(c2cccc3ccccc23)CCN1Cc1c(F)cccc1Cl	631
Cc1nn(-c2ccccn2)c(C)c1CC(=O)NCc1ccc(F)cc1Cl	100
O=C(Cc1cn(CCNCCO)nc1C(F)(F)F)NCc1ccc(F)cc1Cl	631
CN(C)CCn1ncc(CC(=O)NCc2ccc(F)cc2Cl)c1C(F)(F)F	1260
Cc1nn(CCNCCO)c(C)c1CC(=O)NCc1ccc(F)cc1Cl	100
O=C(Cc1cn(CCNC2CCOCC2)nc1C(F)(F)F)NCc1ccc(F)cc1Cl	794
O=C(Cc1cnn(-c2ccc(F)cc2)c1C(F)(F)F)NCc1ccc(F)cc1Cl	1260
Cc1c(CN2CCOCC2)cccc1N1CCN(Cc2ccc(F)cc2Cl)C(=O)C1=O	100
COCCn1nc(C)c(CC(=O)NCc2ccc(F)cc2Cl)c1C	398
CCOc1cccc(-n2cc(CC(=O)NCc3ccc(F)cc3Cl)cn2)n1	1260
Cn1nccc1CC(=O)NCc1ccc(Cl)cc1Cl	126
Cc1nn(-c2ccccc2)c(C)c1CC(=O)NCc1c(Cl)cccc1Cl	63.1
Cc1nn(CC(C)(C)C)c(C)c1CC(=O)NCc1ccc(F)cc1Cl	100
CCN1C(=O)OC[C@@H]1C(=O)NCc1ccc(F)cc1Cl	316
CNc1nnc2n1CCN(C(=O)c1cccc(C(F)(F)F)c1Cl)C2	251
CCN1C(=O)CC[C@H]1C(=O)NCc1ccc(F)c(C(F)(F)F)c1	79.4
Cc1cccc(C(=O)N2CCN(C)C(=O)C2)c1Cl	631
CCN1[C@H](C(=O)NCc2ccc(F)c(F)c2F)CCCS1(=O)=O	631
O=C1C(=O)N(c2ccccc2N2CCCCC2)CCN1Cc1ccc(F)cc1Cl	50.1

Compound	IC50 [nM]
CN1C(=O)CC[C@@H]1C(=O)NCc1ccc(Cl)cc1Cl	50.1
O=C(Cc1cn(CCO)nc1C(F)(F)F)NCc1ccc(F)cc1Cl	398
Cc1nn(-c2nccs2)c(C)c1CC(=O)NCc1ccc(F)cc1Cl	316
CN1C(=O)CC[C@@H]1C(=O)NCc1cccc(C(F)(F)F)c1F	200
Cc1ncccc1N1CCN(Cc2ccc(F)cc2Cl)C(=O)C1=O	631
Cc1ccc(C(F)(F)F)cc1N1CCN(Cc2ccc(F)cc2Cl)C(=O)C1=O	50.1
O=C(c1cccc(Cl)c1Cl)N1CCn2c(Br)nnc2C1	50.1
CCN1C(=O)CC[C@H]1C(=O)NCc1ccccc1C	794
CCN1C(=O)CC[C@H]1C(=O)NCc1cccc(Cl)c1F	79.4
O=C1C(=O)N(c2ccc3c(c2)OCCO3)CCN1Cc1ccc(F)cc1Cl	200
CN1C(=O)N(c2ccccn2)C[C@H]1C(=O)NCc1ccc(F)cc1Cl	79.4
CCOc1ccc(-n2nc(C)c(CC(=O)NCc3ccc(F)cc3Cl)c2C)cc1	158
Cc1ccc(-c2cccc(N3CCN(C(=O)c4cccc(C(F)(F)F)c4Cl)CC3=O)c2C)cn1	50.1
COCCN1CCN(C(=O)c2cccc(C(F)(F)F)c2Cl)CC1=O	316
CC(C)CN1CCN(C(=O)c2cccc(Cl)c2Cl)CC1=O	50.1
CN1C[C@@H](C(=O)NCc2ccc(F)cc2Cl)NC1=O	794
COc1cncc(-n2nc(C)c(CC(=O)NCc3ccc(F)cc3Cl)c2C)c1	398
CN1C(=O)N(CCN2CCOCC2)CC1C(=O)NCc1ccc(F)cc1Cl (configuration not stated)	251
Cc1cc(-n2nc(C)c(CC(=O)NCc3ccc(F)cc3Cl)c2C)nc(C)n1	200
O=C1CN(C(=O)c2cccc(C(F)(F)F)c2Cl)CCN1CC(F)(F)F	200

Compound	IC50 [nM]
O=C(c1ccccc1Cl)N1CCn2c(nnc2-c2ccc(F)cc2)C1	79.4
CCN1C(=O)CC[C@H]1C(=O)NCc1cccc(C)c1C	100
O=C1C(=O)N(c2cccc(Cl)c2Cl)CCN1Cc1cccc(Cl)c1	501
CN1C(=O)N(c2cccnc2)C[C@H]1C(=O)NCc1ccc(F)cc1Cl	50.1
Cn1nccc1CC(=O)NCc1ccc(F)c(F)c1Cl	158
Cc1c(Cl)cccc1CNC(=O)[C@@H]1CCS(=O)(=O)N1C(C)C	251
Cc1nn(-c2cccc(Cl)c2)c(C)c1CC(=O)NCc1ccc(F)cc1Cl	316
Cc1nn(-c2ccccc2)c(C)c1CC(=O)NCc1ccccc1Br	316
CCN1C(=O)CC[C@@H]1C(=O)NCc1c(Cl)cccc1Cl	631
Cc1ccccc1N1CCN(C(=O)c2ccc(Cl)cc2Cl)CC1=O	63.1
CCN1C(=O)[C@@H](Cc2ccccc2)C[C@H]1C(=O)NCc1ccc(F)cc1Cl	126
O=C(c1c(Cl)cc(Cl)cc1Cl)N1CCn2c(Br)nnc2C1	398
Cc1cncc(-n2nc(C)c(CC(=O)NCc3ccc(F)cc3Cl)c2C)c1	316
Cc1c(N2CCN(Cc3ccc(F)cc3Cl)C(=O)C2=O)cccc1-n1ccnc1	50.1
CCN1CC(C(=O)NCc2cccc(C(F)(F)F)c2Cl)CC1=O (configuration not stated)	50.1
Cc1nn(-c2ccccc2)c(C(C)C)c1CC(=O)NCc1ccc(F)cc1Cl	631
CCN1[C@H](C(=O)NCc2ccccc2Cl)CCS1(=O)=O	501
Cc1nn(CC(C)C)c(C)c1CC(=O)NCc1ccc(F)cc1Cl	251
O=C(c1cccc(C(F)(F)F)c1Cl)N1CCn2c(nnc2C2CCCCC2)C1	50.1

The remaining lines, values ahead:

IC50 [nM]	Compound
10	CC(C)c1ccccc1N1CCN(C(=O)c2cccc(Cl)c2Cl)CC1=O
31.6	CC(c1ccccc1)N1CCN(C(=O)c2cccc(C(F)(F)F)c2Cl)CC1=O (configuration not stated)
39.8	Cc1ccc(-c2ccc(C)c(N3CCN(C(=O)c4cccc(C(F)(F)F)c4Cl)CC3=O)c2)cn1
12.6	O=C(c1cccc(C(F)(F)F)c1Cl)N1CCn2c(nnc2-c2cccnn2)C1
1.58	CCN1C(=O)N(C)C[C@H]1C(=O)NCc1ccc(Cl)cc1Cl
3.16	O=C(c1cccc(C(F)(F)F)c1Cl)N1CCn2c(nc(Cl)c2Cl)C1
2.51	O=C(c1cccc(Cl)c1Cl)N1CCn2c(nnc2-c2ccc[nH]2)C1
50.1	CCN1C(=O)CC[C@H]1C(=O)NCc1c(C)cc(C)cc1C
3.16	CCN1C[C@@H](C(=O)NCc2ccc(Cl)cc2Cl)N(C)C1=O
7.94	CN1C(=O)N(c2ccc(F)nc2)C[C@H]1C(=O)NCc1cccc(C(F)(F)F)c1Cl
12.6	O=C(c1cccc(C(F)(F)F)c1Cl)N1CCN(c2cccc3ccccc23)C(=O)C1
10	CC1(C(=O)NCc2ccc(Cl)cc2Cl)CCC(=O)N1C1CC1 (configuration not stated)
7.94	CN1C[C@@H](C(=O)NCc2cccc(C(F)(F)F)c2F)N(C)C1=O
31.6	O=C(c1cccc(Cl)c1Cl)N1CCn2c(nnc2-c2cccnn2)C1
12.6	O=C(c1cccc(C(F)(F)F)c1Cl)N1CCn2c(-c3ccc(F)cc3)cnc2C1
1	CN1C[C@@H](C(=O)NCc2ccc(F)c(C(F)(F)F)c2Cl)N(C)C1=O
20	CC(C)N1C(=O)CC[C@H]1C(=O)NCc1ccc(F)c(F)c1Cl
50.1	CN1C[C@@H](C(=O)NCc2ccc(Cl)c(C(F)(F)F)c2)N(C)C1=O
6.31	CN1C(=O)N(c2ncc(Cl)cn2)C[C@H]1C(=O)NCc1ccc(Cl)cc1Cl
39.8	O=C(c1ccc(F)cc1Cl)N1CCN(c2ccccc2Cl)C(=O)C1
2	O=C(c1ccc(F)c(Cl)c1Cl)N1CCn2c(nnc2-c2cnccn2)C1
20	O=C(c1ccc(Cl)cc1Cl)N1CCn2c(-c3ccccc3)cnc2C1

IC50 [nM]	Compound
10	CN1C(=O)N(c2cccnc2Cl)C[C@H]1C(=O)NCc1ccc(F)c(F)c1Cl
5.01	O=C(c1cccc(Cl)c1Cl)N1CCn2c(-c3ccccc3)cnc2C1
39.8	Cc1cccc(Cl)c1CNC(=O)Cc1c(C)nn(-c2ccccc2)c1C
39.8	Cc1nn(CCNCC(C)C)c(C)c1CC(=O)NCc1ccc(F)cc1Cl
25.1	O=C(c1ccc(F)cc1Cl)N1CCn2c(-c3ccc(F)cn3)cnc2C1
15.8	CN1[C@H](C(=O)NCc2cccc(C(F)(F)F)c2Cl)CCS1(=O)=O
31.6	Cc1ncccc1N1C[C@@H](C(=O)NCc2ccc(F)c(F)c2Cl)N(C)C1=O
5.01	O=C(c1cccc(C(F)(F)F)c1F)N1CCn2c(nnc2-c2ccccn2)C1
5.01	Cc1ccccc1N1CCN(Cc2c(C)cc(Cl)cc2Cl)C(=O)C1=O
12.6	O=C1C(=O)N(c2cccc3[nH]ccc23)CCN1Cc1ccc(F)cc1Cl
10	O=C(c1ccccc1Cl)N1CCn2c(nnc2-c2cscn2)C1
20	Cc1c(Cl)cccc1CNC(=O)[C@@H]1CNC(=O)N1C
15.8	Cn1nccc1-c1nnc2n1CCN(C(=O)c1cccc(C(F)(F)F)c1Cl)C2
5.01	O=C(NCc1ccc(Cl)cc1Cl)[C@@H]1CCC(=O)N1C1CCC1
31.6	CCN1C(=O)[C@H](Cc2ccccc2)C[C@H]1C(=O)NCc1cccc(C(F)(F)F)c1Cl
12.6	CCN1C(=O)NC[C@H]1C(=O)NCc1ccc(Cl)cc1Cl
12.6	Cc1cc(F)cc(C)c1N1CCN(Cc2ccc(Cl)cc2Cl)C(=O)C1=O
25.1	COc1cccc(N2CCN(Cc3ccc(F)cc3Cl)C(=O)C2=O)c1C
10	Cc1ccccc1N1CCN(Cc2ccc(Cl)cc2Cl)C(=O)C1=O
5.01	Cc1cccnc1N1C[C@@H](C(=O)NCc2cccc(C(F)(F)F)c2Cl)N(C)C1=O
25.1	CC1CC(=O)N(C)[C@@H]1C(=O)NCc1cccc(C(F)(F)F)c1Cl (some centres not stated)
